Laboratory results published in US20110183978A1, “Phenylpyri(mi)dinylazoles” (Bayer CropScience AG, priority 2009, published 2011).
Like-named read-outs stand apart in the source and are kept apart here.

Assays:
Fusarium graminearum = test: microbe, parasite or virus in culture; assay type: cell-based
Sphaerotheca fuliginea = test: Example L: in vivo test on Sphaerotheca fuliginea (powdery mildew on cucumber/protective); conditions: Podosphaera fuliginea, 168 h, cucumber, protective, assessment 7 days after inoculation, read-out: % Wirkungsgrad
Method: (§1) Solvent: 49 parts by weight N,N-dimethylformamide Emulsifier: 1 part by weight alkylaryl polyglycol ethers For the preparation of a suitable active substance preparation, 1 part by weight of active substance is mixed with the stated quantities of solvent and emulsifier and the concentrate is diluted to the desired concentration with water. For the testing for protective activity, young cucumber plants are sprayed with the active substance preparation at the stated application dosage. One day after the treatment, the plants are inoculated with a spore suspension of Sphaerotheca fuliginea. Next, the plants are placed in a greenhouse at 70% relative atmospheric humidity and a temperature of 23° C. 7 days after the inoculation, the assessment takes place.

Alternaria solani = test: Example M: in vivo test on Alternaria solani (leaf blotch disease/tomato/protective); conditions: 168 h, tomato, protective, 500 ppm active substance, assessed 7 days after inoculation, read-out: % Wirkungsgrad (activity level)
Method: as §1, with “tomato” for “cucumber”, “One day after the treatment, the plants are inoculated with a spore suspension of Sphaerotheca fuliginea. Next, the plants are placed in a greenhouse at 70% relative atmospheric humidity and a temperature of 23° C.” left out

physchem = conditions: LogPA
[1] = 72 h, read-out: % Inhibition des Pilzwachstums bei 50 μM
[2] = 168 h, read-out: % Inhibition der DON/AcDON produktion bei 50 μM

Compound | inhibition at 50 µM (Fusarium graminearum; [1]) | inhibition at 50 µM (Fusarium graminearum; [2]) | pest or weed control at 500 ppm (Sphaerotheca fuliginea) | pest or weed control at 500 ppm (Alternaria solani) | chromatographic logP (physchem)
CCC(=O)Nc1cc(-c2cn(OC(C)C)nc2-c2ccc(F)cc2)ccn1 [Compound 226] | 85% | 100% | 95% | 95% | 2.58
CC(C)Cn1cc(-c2ccncc2-c2cccc(F)c2)c(-c2ccc(F)cc2)n1 [Compound 229] | 0% | 97% | 94% | 95% | 3.13
CC(C)C(=O)Nc1cc(-c2cn(C(C)c3ccccc3F)nc2-c2ccc(F)cc2)ccn1 (stereo not shown) [Compound 232] | 0% | 80% | 93% | 95% | 3.41
CC(C)n1cc(-c2ccnc(NC(=O)N(C)C)c2)c(-c2ccc(F)cc2)n1 [Compound 233] | 100% | 100% | 95% | 90% | 1.6
COCC(=O)Nc1cc(-c2cn(CC3CC3(Cl)Cl)nc2-c2ccc(F)cc2)ccn1 (stereo not shown) [Compound 245] | 95% | 99% | 88% | 94% | 3.22
CCC(=O)Nc1cc(-c2cn(C(C)C3CC3)nc2-c2ccc(F)cc2)ccn1 (stereo not shown) [Compound 301] |  |  | 95% | 95% | 2.54
CCC(=O)Nc1cc(-c2cn(CCC#N)nc2-c2ccc(F)cc2)ccn1 [Compound 303] |  |  | 95% | 100% | 1.63
CSCCn1cc(-c2ccnc(NC(=O)C(C)C)c2)c(-c2ccc(F)cc2)n1 [Compound 306] |  |  | 94% | 95% | 2.44
CC(C)C(=O)Nc1cc(-c2cn(C(C)C3CC3)nc2-c2ccc(F)cc2)ccn1 (stereo not shown) [Compound 307] |  |  | 100% | 100% | 2.9
CC(C)C(=O)Nc1cc(-c2cn(CCC#N)nc2-c2ccc(F)cc2)ccn1 [Compound 309] |  |  | 100% | 100% | 1.91
CCC(=O)Nc1cc(-c2cn(C(C)CC#N)nc2-c2ccc(F)cc2)ccn1 (stereo not shown) [Compound 312] |  |  | 100% | 100% | 1.87
COCC(=O)Nc1cc(-c2cn(C(C)CC#N)nc2-c2ccc(F)cc2)ccn1 (stereo not shown) [Compound 313] |  |  | 98% | 95% | 2.17
CC(C)C(=O)Nc1cc(-c2cn(C(C)CC#N)nc2-c2ccc(F)cc2)ccn1 (stereo not shown) [Compound 314] |  |  | 100% | 100% | 1.29
CC(CC#N)n1cc(-c2ccnc(NC(=O)CC3CC3)c2)c(-c2ccc(F)cc2)n1 (stereo not shown) [Compound 315] |  |  | 95% | 95% | 2.28
CCC(=O)Nc1cc(-c2c(-c3ccc(F)cc3)nn(C)c2OC(F)F)ccn1 [Compound 316] |  |  | 75% | 100% | 2.33
CCC(=O)Nc1cc(-c2cn(C3CC3)nc2-c2ccc(F)cc2)ccn1 [Compound 320] |  |  | 94% | 95% | 1.97
CC(C)C(=O)Nc1cc(-c2cn(C3CC3)nc2-c2ccc(F)cc2)ccn1 [Compound 322] |  |  | 95% | 95% | 2.32
O=C(CC1CC1)Nc1cc(-c2cn(C3CC3)nc2-c2ccc(F)cc2)ccn1 [Compound 323] |  |  | 86% | 95% | 2.48

Compound | inhibition at 50 µM (Fusarium graminearum; [1]) | inhibition at 50 µM (Fusarium graminearum; [2]) | pest or weed control at 500 ppm (Sphaerotheca fuliginea) | pest or weed control at 500 ppm (Alternaria solani) | chromatographic logP (physchem)
CCn1cc(-c2ccnc(NC(=O)[C@@H]3C[C@H]3c3ccccc3)c2)c(-c2ccc(F)cc2)n1 [Compound 337] |  |  | 88% | 95% | 3.06
CCn1cc(-c2ccnc(NC(=O)CC3CCCC3)c2)c(-c2ccc(F)cc2)n1 [Compound 338] |  |  | 91% | 80% | 3.87
CCn1cc(-c2ccnc(NC(=O)CC(C)C)c2)c(-c2ccc(F)cc2)n1 [Compound 339] |  |  | 95% | 95% | 3.47
CCC(C)C(=O)Nc1cc(-c2cn(CC)nc2-c2ccc(F)cc2)ccn1 (stereo not shown) [Compound 340] |  |  | 95% | 95% | 2.42
CCn1cc(-c2ccnc(NC(=O)C3CC3C)c2)c(-c2ccc(F)cc2)n1 (stereo not shown) [Compound 341] |  |  | 100% | 95% | 2.16
CCn1cc(-c2ccnc(NC(C)=O)c2)c(-c2ccc(F)cc2)n1 [Compound 342] |  |  | 94% | 95% | 1.57
CC(C)CC(=O)Nc1cc(-c2cn(C)nc2-c2ccc(F)cc2)ccn1 [Compound 347] |  |  | 95% | 95% | 2.12
CCC(C)C(=O)Nc1cc(-c2cn(C)nc2-c2ccc(F)cc2)ccn1 (stereo not shown) [Compound 348] |  |  | 95% | 95% | 2.14
Cn1cc(-c2ccnc(NC(=O)C3CCC3)c2)c(-c2ccc(F)cc2)n1 [Compound 349] |  |  | 95% | 80% | 1.93
CC(=O)Nc1cc(-c2cn(C)nc2-c2ccc(F)cc2)ccn1 [Compound 350] |  |  | 94% | 95% | 1.32
CCn1cc(-c2ccnc(NC(=O)C(N)=O)c2)c(-c2ccc(F)cc2)n1 [Compound 351] |  |  | 80% | 95% | 1.99
CCn1cc(-c2ccnc(NC(=O)[C@H](C)O)c2)c(-c2ccc(F)cc2)n1 [Compound 352] |  |  | 73% | 95% | 1.83
CC(C)n1cc(-c2ccnc(N)n2)c(-c2ccc(F)cc2)n1 [Compound 366] |  |  | 94% | 80% | 1.54
Cc1c(-c2ccncc2)c(-c2ccc(F)cc2)nn1CC(F)F [Compound 367] |  |  | 84% | 95% | 1.49
Cc1c(-c2ccncc2)c(-c2ccc(F)cc2)nn1CC(C)C [Compound 368] |  |  | 94% | 95% | 2.07
CC(C)n1cc(-c2ccnc(NCc3ccccc3)n2)c(-c2ccc(F)cc2)n1 [Compound 369] |  |  | 88% | 90% | 3.31
CC(C)Nc1nccc(-c2cn(C(C)C)nc2-c2ccc(F)cc2)n1 [Compound 371] |  |  | 94% | 95% | 2.92
